Target: T1, MMP-13 (Homo sapiens, UniProt P45452)
T1 construct: purchased Invitek GmbH, Berlin, Germany HM 13110010
Experiment: MMP-13 marker substrate conversion (fluorescence) in the presence of collagen II and test substance
Format: biochemical
Conditions: control without test substance 49%
Method: MMP-13 was obtained as a commercial product (Cat. No. HM 13110010) from Invitek GmbH, Berlin, Germany, activated according to the manufacturer's instruction, and diluted to 10 μg/10 ml with TCB buffer. TCB buffer was prepared by dissolving 10 mM tris(hydroxymethyl)aminomethane (Sigma-Aldrich Chemie GmbH, Deisenhofen, Germany) in water and adjusting the pH to 7.5 with HCl. 100 mM CaCl2×2H2O (Merck KGaA, Darmstadt, Germany) and 0.05% of Brij 35 solution, 30% (w/v) (Sigma-Aldrich Chemie GmbH, Deisenhofen, Deutschland), are added to said solution.
A solution of 10 mmol/l (7-methoxycoumarin-4-yl )acetyl-Pro-Leu-Gly-Leu-(3-[2,4-dinitrophenyl]-L-2,3-diaminopropionyl)-Ala-Arg-[…] (SEQ ID NO: 1). (Bachem Biochemica GmbH, Heidelberg, Germany) in dimethyl sulfoxide (DMSO) (Riedel-de Haen AG, Seelze, Germany) was diluted 1:40 (v/v) with water.
10 mg of human […] (Biocon, Potsdam, Germany) were dissolved in 2400 μl of 10 mmol/l acetic acid (72 hours at 4° C.), and then 1300 μl of a sodium bicarbonate solution (250 mmol/l) CaCl2×2H2O (Merck KGaA, Darmstadt, Germany) were added dropwise.
Test substance (suspected inhibitor or ligand), typically dissolved in water at an appropriate concentration relative to the amount of enzyme used.
The components A) (25 μl), B) (5 μl), C) (10 μl) and D) (10 μl) were mixed in a total volume of 50 μl, and fluorescence was measured in a commercial spectrofluorimeter after 15 minutes (excitation at 330 nm, emission at 390 nm, Spectrafluor plus, Tecan Deutschland GmbH, Crailsheim, Germany).
Enzyme and inhibitor were preincubated at room temperature for 15 min. The reaction was started by adding 5 μl of marker substrate solution (component B at 25 μM).
The fluorescence in example 1 was set at 100%, and the measured values of the other examples are based on this value.

[1] = 200 μmol/l test substance, components A (MMP-13), B (marker substrate), C (collagen II) present

Compound	Measured value (fluorescence, example 1 set at 100%) [1] [%]	Measured value (fluorescence, example 1 set at 100%) (200 μmol/l test substance, components A (MMP-13), B (marker substrate), C (collagen II) present, listed as (I)) [%]	Measured value (fluorescence, example 1 set at 100%) (60 μg/well (60 μg/50 μl) test substance, components A, B, C present) [%]
Fc1ccc(/C(=C\CCN2CCC(=C(c3ccccc3)c3ccccc3)CC2)c2ccccc2)cc1 [substance (I), 4-(diphenylmethylene)-1-[4-(p-fluorophenyl)-4-phenyl-3-butenyl]piperidine]	59	59	
C[C@H]1c2cccc(O)c2C(=O)C2=C(O)[C@]3(O)C(=O)C(C(N)=O)=C(O)[C@@H](N(C)C)[C@@H]3[C@@H](O)[C@@H]21 [doxycycline]	0		
protamine sulfate			73

Reference: patent US6737246B2, “Method for detecting protein inhibitors and ligands of medical value” (Aventis Pharma Deutschland, GmbH, priority 2000, dated 2004)
